Assay results taken from the NIST ThermoML archive (doi:10.1016/j.tca.2013.02.010).

How the values were obtained:
[1] = refractive index (Na D-line) (dimensionless); details: 298.15 K; 101.33 kPa; Liquid; Standard Abbe refractometry
[2] = 101.33 kPa, Liquid, Pycnometric method
[3] = excess molar enthalpy (molar enthalpy of mixing); xn = mol fraction of the nth substance listed; details: 101 kPa, Liquid, Flow calorimetry
[4] = xn = mol fraction of the nth substance listed; details: 308.15 K, 101 kPa, Liquid, Direct dilatometry

NC=O [formamide]
Details | refractive index
[1] | 1.4461

[2]
Details | mass density [kg/m3]
298.15 K | 1129.04
308.15 K | 1120.45

NC=O [formamide] + CC(C)O
[3]
Details | excess molar enthalpy [kcal/mol]
298.15 K, x1 = 0.056 | 0.0588
298.15 K, x1 = 0.073 | 0.0736
298.15 K, x1 = 0.099 | 0.0963
298.15 K, x1 = 0.125 | 0.111
298.15 K, x1 = 0.162 | 0.134
298.15 K, x1 = 0.2 | 0.149
298.15 K, x1 = 0.253 | 0.167
298.15 K, x1 = 0.291 | 0.1747
298.15 K, x1 = 0.329 | 0.1809
298.15 K, x1 = 0.4 | 0.1855
298.15 K, x1 = 0.468 | 0.1845
298.15 K, x1 = 0.537 | 0.179
298.15 K, x1 = 0.597 | 0.1699
298.15 K, x1 = 0.662 | 0.157
298.15 K, x1 = 0.702 | 0.1477
298.15 K, x1 = 0.728 | 0.139
298.15 K, x1 = 0.766 | 0.126
298.15 K, x1 = 0.812 | 0.108
298.15 K, x1 = 0.849 | 0.0913
298.15 K, x1 = 0.878 | 0.077
298.15 K, x1 = 0.901 | 0.0636
298.15 K, x1 = 0.941 | 0.0406
308.15 K, x1 = 0.0666 | 0.0798
308.15 K, x1 = 0.0916 | 0.103
308.15 K, x1 = 0.1166 | 0.124
308.15 K, x1 = 0.1501 | 0.1475
308.15 K, x1 = 0.1812 | 0.165
308.15 K, x1 = 0.229 | 0.1886
308.15 K, x1 = 0.2702 | 0.2022
308.15 K, x1 = 0.3082 | 0.2141
308.15 K, x1 = 0.3666 | 0.2239
308.15 K, x1 = 0.425 | 0.2297
308.15 K, x1 = 0.4958 | 0.2297
308.15 K, x1 = 0.5624 | 0.2239
308.15 K, x1 = 0.629 | 0.2094
308.15 K, x1 = 0.6832 | 0.1919
308.15 K, x1 = 0.7124 | 0.1809
308.15 K, x1 = 0.7503 | 0.164
308.15 K, x1 = 0.7958 | 0.14
308.15 K, x1 = 0.8374 | 0.115
308.15 K, x1 = 0.8708 | 0.0932
308.15 K, x1 = 0.8874 | 0.0805
308.15 K, x1 = 0.9082 | 0.0674
308.15 K, x1 = 0.954 | 0.0337

[4]
Details | excess molar volume [m3/mol]
x1 = 0.0455 | -3.2e-08
x1 = 0.1021 | -6.4e-08
x1 = 0.1327 | -7.9e-08
x1 = 0.1725 | -1.05e-07
x1 = 0.2155 | -1.34e-07
x1 = 0.2692 | -1.69e-07
x1 = 0.3269 | -2.06e-07
x1 = 0.3535 | -2.27e-07
x1 = 0.3867 | -2.48e-07
x1 = 0.4245 | -2.71e-07
x1 = 0.485 | -3e-07
x1 = 0.5191 | -3.13e-07
x1 = 0.5729 | -3.28e-07
x1 = 0.6237 | -3.32e-07
x1 = 0.6951 | -3.31e-07
x1 = 0.7543 | -3.11e-07
x1 = 0.7907 | -2.9e-07
x1 = 0.825 | -2.61e-07
x1 = 0.8735 | -2e-07
x1 = 0.8999 | -1.71e-07
x1 = 0.9331 | -1.18e-07
x1 = 0.9745 | -5.1e-08

NC=O [formamide] + CCCO
[3]
Details | excess molar enthalpy [kcal/mol]
298.15 K, x1 = 0.0624 | 0.0614
298.15 K, x1 = 0.0881 | 0.082
298.15 K, x1 = 0.1208 | 0.105
298.15 K, x1 = 0.1479 | 0.123
298.15 K, x1 = 0.1832 | 0.141
298.15 K, x1 = 0.2231 | 0.156
298.15 K, x1 = 0.254 | 0.166
298.15 K, x1 = 0.3018 | 0.1757
298.15 K, x1 = 0.3775 | 0.1809
298.15 K, x1 = 0.452 | 0.1788
298.15 K, x1 = 0.4832 | 0.1771
298.15 K, x1 = 0.5364 | 0.1678
298.15 K, x1 = 0.5953 | 0.158
298.15 K, x1 = 0.6672 | 0.1441
298.15 K, x1 = 0.6958 | 0.137
298.15 K, x1 = 0.7521 | 0.122
298.15 K, x1 = 0.7958 | 0.109
298.15 K, x1 = 0.8443 | 0.0913
298.15 K, x1 = 0.8956 | 0.0686
298.15 K, x1 = 0.9208 | 0.0559
298.15 K, x1 = 0.9526 | 0.0361
298.15 K, x1 = 0.9666 | 0.028
308.15 K, x1 = 0.0582 | 0.0631
308.15 K, x1 = 0.079 | 0.0825
308.15 K, x1 = 0.104 | 0.103
308.15 K, x1 = 0.1374 | 0.125
308.15 K, x1 = 0.1624 | 0.141
308.15 K, x1 = 0.2082 | 0.164
308.15 K, x1 = 0.2416 | 0.1769
308.15 K, x1 = 0.275 | 0.1869
308.15 K, x1 = 0.3332 | 0.1979
308.15 K, x1 = 0.4124 | 0.202
308.15 K, x1 = 0.4666 | 0.2036
308.15 K, x1 = 0.5082 | 0.1986
308.15 K, x1 = 0.5666 | 0.1919
308.15 K, x1 = 0.625 | 0.1769
308.15 K, x1 = 0.679 | 0.164
308.15 K, x1 = 0.725 | 0.15
308.15 K, x1 = 0.775 | 0.131
308.15 K, x1 = 0.8166 | 0.113
308.15 K, x1 = 0.8666 | 0.0877
308.15 K, x1 = 0.9124 | 0.0621
308.15 K, x1 = 0.9416 | 0.0425
308.15 K, x1 = 0.9582 | 0.0306

[4]
Details | excess molar volume [m3/mol]
x1 = 0.0615 | -3e-08
x1 = 0.1052 | -4.3e-08
x1 = 0.165 | -6e-08
x1 = 0.1937 | -6.9e-08
x1 = 0.2453 | -7.8e-08
x1 = 0.2856 | -9.1e-08
x1 = 0.3317 | -1.05e-07
x1 = 0.372 | -1.12e-07
x1 = 0.3949 | -1.25e-07
x1 = 0.4236 | -1.35e-07
x1 = 0.4639 | -1.48e-07
x1 = 0.5213 | -1.61e-07
x1 = 0.5903 | -1.71e-07
x1 = 0.6394 | -1.71e-07
x1 = 0.6765 | -1.68e-07
x1 = 0.7225 | -1.59e-07
x1 = 0.7686 | -1.42e-07
x1 = 0.8031 | -1.23e-07
x1 = 0.8492 | -1e-07
x1 = 0.8837 | -7.8e-08
x1 = 0.9124 | -5.5e-08
x1 = 0.9411 | -3.3e-08

CCCO [propan-1-ol]
Details | refractive index
[1] | 1.3835

[2]
Details | mass density [kg/m3]
298.15 K | 799.76
308.15 K | 791.48

CC(C)O [propan-2-ol]
Details | refractive index
[1] | 1.3753

[2]
Details | mass density [kg/m3]
298.15 K | 781.25
308.15 K | 772.3
